From PubChem BioAssay (NCI)
“And” between values parts separate entries of the source, which are not always exact repeats. Equal values may be shown once.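 Protocol summary: plate cells (96-well), add compound at 5 concentrations, incubate 48 h, interpolate endpoints linearly. Here, GI50 denotes the concentration required for 50% inhibition of growth. TGI is the concentration that stops growth completely.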

Columns and labels:
Test in all cases: NCI tumour cell line growth inhibition, 48 h
786-0 renal = test system: 786-0 renal
KM12 colon = test system: KM12 colon
MALME-3M melanoma = test system: MALME-3M melanoma
OVCAR-5 ovarian = test system: OVCAR-5 ovarian
RPMI-8226 leukemia = test system: RPMI-8226 leukemia
RXF 393 renal = test system: RXF 393 renal
SNB-19 CNS = test system: SNB-19 CNS
U251 CNS = test system: U251 CNS
NCI-H23 lung = test system: NCI-H23 lung
HL-60(TB) leukemia = test system: HL-60(TB) leukemia

| SMILES | TGI (786-0 renal) | TGI (KM12 colon) | TGI (MALME-3M melanoma) | TGI (OVCAR-5 ovarian) | TGI (RPMI-8226 leukemia) | TGI (RXF 393 renal) | TGI (SNB-19 CNS) | TGI (U251 CNS) | GI50 (786-0 renal) | GI50 (KM12 colon) | GI50 (MALME-3M melanoma) | GI50 (NCI-H23 lung) | GI50 (OVCAR-5 ovarian) | GI50 (RXF 393 renal) | TGI (HL-60(TB) leukemia) | TGI (NCI-H23 lung) | GI50 (HL-60(TB) leukemia) | GI50 (RPMI-8226 leukemia) | GI50 (SNB-19 CNS) | GI50 (U251 CNS) |
| --- | --- | --- | --- | --- | --- | --- | --- | --- | --- | --- | --- | --- | --- | --- | --- | --- | --- | --- | --- | --- |
| CCCCCCCCCCCC(=O)OCC1OC(OC)C(NC(=O)N(CCCl)N=O)C(O)C1O (centres undefined) | 10.4 µM | 37.1 µM | 30.6 µM | 57.7 µM | 29.6 µM | 26.4 µM | > 100 µM | 26.1 µM |  |  |  |  |  |  |  |  |  |  |  |  |
| Nc1ccc2cc3ccc(N)cc3nc2c1 | 11.8 µM [middle of 4 runs] | 6.73 µM [middle of 4 runs] | 3.21 µM [middle of 4 runs] | 4.98 µM and 30.1 µM and 28.6 µM | 4.77 µM and 5.01 µM and 6.42 µM | 5.83 µM and 3.15 µM and 1.97 µM |  | 11.4 µM and 10.4 µM and 9.94 µM | 1.97 µM [middle of 4 runs] | 631 nM [middle of 4 runs] | 1.16 µM [middle of 4 runs] | 1.58 µM [middle of 4 runs] | 1.97 µM | 2.03 µM and 1.36 µM and 0.565 µM |  |  |  |  |  |  |
| O=C1NC(=O)C(CC2CCCCCCCCCCC2=O)C(=O)N1 (centres undefined) | > 100 µM | > 100 µM |  | > 100 µM |  | > 100 µM | > 100 µM | > 100 µM |  |  |  |  |  |  | > 100 µM | > 100 µM |  |  |  |  |
| O=C(/C=C\c1ccc(NCc2ccc(C(=O)O)cc2)cc1)CCl | 23.9 µM | 32 µM |  | 34.5 µM | 35.3 µM |  | 29.1 µM | 27 µM | 10.2 µM | 17 µM |  | 15.5 µM | 17.8 µM |  | 36.7 µM | 31 µM | 14.8 µM | 9.07 µM | 15.3 µM | 13.9 µM |
| O=C1NC2OC(C(O)CO)C(O)C2O1 (centres undefined) | > 100 µM | > 100 µM | > 100 µM | > 100 µM |  |  | > 100 µM | > 100 µM |  |  |  |  |  |  | > 100 µM | > 100 µM |  |  |  |  |
| Nc1ccn(C2CCC(CO)O2)c(=O)n1 (centres undefined) | > 1000 µM | > 1000 µM | > 1000 µM | > 1000 µM | > 1000 µM |  | > 1000 µM | > 1000 µM |  | > 1000 µM | > 1000 µM | > 1000 µM | > 1000 µM |  | > 1000 µM | > 1000 µM |  | > 1000 µM | > 1000 µM | > 1000 µM |
| O=C1OC2CCCC[C@@H]2C2C[C@]34CCCCC3[C@@H](C(=O)O4)C12 (some centres undefined) | > 100 µM | > 100 µM | > 100 µM | > 100 µM |  | > 100 µM | > 100 µM | > 100 µM |  |  |  |  |  |  |  | > 100 µM |  |  |  |  |
| CCOC(=O)NC(=O)c1cn(CCCOC(=O)CCCCCCCCCCC(=O)OCCCn2cc(C(=O)NC(=O)OCC)c(=O)[nH]c2=O)c(=O)[nH]c1=O | > 100 µM | > 100 µM | > 100 µM | > 100 µM | > 100 µM |  | > 100 µM | > 100 µM |  |  |  |  |  |  | > 100 µM | > 100 µM |  |  |  |  |
| COc1c(CCl)cc(-c2cc(=O)c3ccccc3s2)cc1CCl | 1.74 µM | > 100 µM |  | > 100 µM | > 100 µM | 3.2 µM | > 88.9 µM | > 59.8 µM |  |  |  |  |  |  | > 23.6 µM | > 100 µM |  |  |  |  |
| CC1=CC(C/C(C)=C/COc2ccc3ccc(=O)oc3c2)OC1=O (centres undefined) | > 100 µM | > 100 µM |  | > 100 µM |  | > 100 µM | > 100 µM | > 100 µM |  |  |  |  |  |  | > 100 µM | > 100 µM |  |  |  |  |
| CSC(C1c2ccccc2N(c2ccc(C)cc2)c2[nH]c(=O)n(C)c(=O)c21)S(=O)(=O)c1ccc(C)cc1 (centres undefined) | > 100 µM |  | > 100 µM | > 100 µM | > 100 µM |  | > 100 µM | > 100 µM |  |  |  |  |  |  | > 100 µM | > 100 µM |  |  |  |  |
| COc1cc(NC(C)CCCN)c2nccc(C)c2c1 (centres undefined) | 38 µM | 32.5 µM | 35.6 µM | > 100 µM | 60.7 µM |  | > 100 µM | 56.8 µM |  |  |  |  |  |  | 21.1 µM | > 100 µM |  |  |  |  |
| Cc1ccc(S(=O)(=O)C(C#N)c2nc3ccccc3nc2-n2ccnc2)cc1 (centres undefined) | > 100 µM | > 100 µM | > 100 µM | > 100 µM | > 100 µM |  | > 100 µM | > 100 µM |  |  |  |  |  |  | > 100 µM | > 100 µM |  |  |  |  |
| CN(C)c1cc[c]([Sn]([c]2ccc(N(C)C)cc2)([c]2ccc(N(C)C)cc2)[c]2ccc(N(C)C)cc2)cc1 | 19.3 µM | 22.7 µM |  | 33.2 µM | 4.76 µM |  | 23 µM | 21.2 µM | 5.36 µM | 5.88 µM |  | 5.88 µM | 16.2 µM |  | 6.93 µM | 32.3 µM | 1.89 µM | 1.55 µM | 10.7 µM | 8.02 µM |
| O=C(O)[C@H](NS(=O)(=O)c1ccc([N+](=O)[O-])cc1)c1ccccc1 | > 100 µM | > 100 µM | > 100 µM | > 100 µM | > 100 µM | > 100 µM | > 100 µM | > 100 µM |  |  |  |  |  |  |  | > 100 µM |  |  |  |  |
